Test results reported in US20220087987A1, “A METHOD FOR TREATING SWI/SNF COMPLEX-DEFICIENT CANCERS COMPRISING GLUTATHIONE (GSH) METABOLIC PATHWAY INHIBITOR” (National Cancer Center, priority 2018, published 2022).

Experiments:
Assay type in all cases: cell-based, human
[1] = test system: ARID1A-proficient and ARID1A-deficient cancer cell lines; assay: Cell viability and colony formation in cancer cell line panel; conditions: four ARID1A-proficient and six ARID1A-deficient cell lines; cell viability, colony formation
[2] = test system: ARID1A-KO cells and ARID1A-deficient cancer cells; assay: Apoptosis detection (cleaved caspase-3/7, Annexin V)
Description: The Annexin V-FITC/PI Apoptosis Detection Kit (Sigma-Aldrich) was used to detect apoptotic cells. Briefly, the cell pellet was suspended in 1× binding buffer and then incubated with Annexin V-FITC and PI in the dark for 10 min. Fluorescence was analyzed on a Guava flow cytometer (Millipore). Data were analyzed using GuavaSoft software (v. 2.7). Relative ratios of the Annexin V-positive fraction in treated samples were normalized against untreated samples.
GSH, ROS and apoptosis were detected using the GSH/GSSG-Glo Assay (Promega) and/or the GSH-Glo Assay (Promega), the ROS-Glo Assay (Promega), and the Caspase-Glo 3/7 Assay, respectively. To measure levels of GSH, ROS and apoptosis after drug treatment, cells were trypsinized, counted, reseeded at the specified density in 96-well plates and exposed to the indicated concentrations of drugs. After 16-48 hrs, luminescence was measured using an Envision Multi-label plate reader (PerkinElmer). […] Cells were trypsinized after a further 48 hrs, counted, and reseeded at the specified density in 96-well plates. After 72-120 hrs, luminescence was measured using an Envision Multi-label plate reader (PerkinElmer). Cell viability was also measured using the CellTiter-Glo Luminescent Cell Viability Assay (Promega). […] The GSH/GSSG ratio was calculated as the GSH-GSSG signal divided by the GSSG/2 signal. […]

[3] = test system: GSH; assay: Detection of GSH in cells (GSH/GSSG-Glo, GSH-Glo)
[4] = test system: ROS; assay: Detection of ROS in cells (ROS-Glo)
Description: GSH, ROS and apoptosis were detected using the GSH/GSSG-Glo Assay (Promega) and/or the GSH-Glo Assay (Promega), the ROS-Glo Assay (Promega), and the Caspase-Glo 3/7 Assay, respectively. To measure levels of GSH, ROS and apoptosis after drug treatment, cells were trypsinized, counted, reseeded at the specified density in 96-well plates and exposed to the indicated concentrations of drugs. After 16-48 hrs, luminescence was measured using an Envision Multi-label plate reader (PerkinElmer). To measure levels of GSH and ROS after siRNA-mediated knockdown, cell lines were transfected with siRNAs (25 nM) using Lipofectamine RNAiMAX. After 48 hrs, cells were trypsinized and transfected repeatedly with siRNAs (25 nM) using Lipofectamine RNAiMAX. Cells were trypsinized after a further 48 hrs, counted, and reseeded at the specified density in 96-well plates. After 72-120 hrs, luminescence was measured using an Envision Multi-label plate reader (PerkinElmer). Cell viability was also measured using the CellTiter-Glo Luminescent Cell Viability Assay (Promega). Caspase-3/7, GSH, and ROS levels were normalized against cell viability. The GSH/GSSG ratio was calculated as the GSH-GSSG signal divided by the GSSG/2 signal. Relative signal ratios in treated samples were normalized against untreated samples.

[5] = test system: p53, p21; assay: Immunoblot for p53 and p21; conditions: ARID1A-WT and ARID1A-KO HCT116; 50 μM PRIMA-1, 50 μM APR-246, 10 μM Nutlin3a, 16 hrs
Description: The soluble fractions of whole-cell lysates were mixed with SDS sample buffer. […] The soluble fractions were mixed with SDS sample buffer. Tumor samples derived from xenografts were weighed and washed with PBS. […] The homogenized tumor samples were diluted in an additional 450 μl of NETN420 buffer, incubated for 30 min on ice, and centrifuged at 4° C. for 10 min at 15,000 rpm. The soluble fractions of whole-cell lysates were mixed with SDS sample buffer. Proteins were separated by SDS-PAGE, transferred to PVDF membranes, and immunoblotted with the indicated antibodies. β-actin was used as a loading control. Membranes were blocked overnight at 4° C. or for 1 hr at 25° C. with PVDF Blocking Reagent for Can Get Signal (TOYOBO) and then probed with Can Get Signal Solution 1 (TOYOBO) containing primary antibodies. After washing with TBS containing 0.1% Tween 20, the membranes were incubated with TBS containing 0.1% Tween 20, 1% BSA, and horseradish peroxidase-conjugated anti-mouse or anti-rabbit secondary antibodies, and visualized using Western Lightning ECL Pro (Perkin Elmer). Chemiluminescence signals were measured using LAS-3000 Imaging System (Fujifilm). Signal intensities were measured using Multi Gauge software.

[6] = test system: ovarian PDCs; assay: Cell viability of ovarian patient-derived cancer cells; conditions: 33 μM APR-246 or 100 μM BSO for 6 days
Description: Tumor samples and ascites were obtained from four ovarian cancer patients who underwent surgery or cell-free and concentrated ascites reinfusion therapy at the National Cancer Center Hospital or Kaname-cho Hospital (Tokyo, Japan) and were cultured in vitro. This protocol was approved by the Institutional Review Board of the National Cancer Center (Tokyo, Japan), and informed consent was obtained from the patients. To establish CCCO219 and CCC1216 PDCs, patient ascites (24 ml) were diluted in two volumes of PBS containing 2 mM EDTA, layered over 15 ml Ficoll-Paque PLUS (GE Healthcare), and centrifuged at 2200 rpm for 30 min. The interphase mononuclear layer was transferred to a fresh conical tube and washed twice with PBS containing 2 mM EDTA. […]
Cell viability was examined by measuring the cellular ATP level using the CellTiter-Glo Luminescent Cell Viability Assay (Promega). […] Cells were trypsinized after a further 48 hrs, counted, and reseeded at the specified density in 96-well plates. To measure cell viability after drug treatment, cells were trypsinized, counted, reseeded at the specified density in 96-well plates, and exposed to the indicated concentrations of drugs. Cell viability was measured using the CellTiter-Glo Luminescent Cell Viability Assay. Luminescence was measured using an Envision Multi-label plate reader (PerkinElmer).

[7] = test system: bile duct cancer cell lines; assay: Cell viability of bile duct cancer cell lines; conditions: treatment for 6 days
Description: Cell viability was examined by measuring the cellular ATP level using the CellTiter-Glo Luminescent Cell Viability Assay (Promega). To measure cell viability after siRNA-mediated knockdown, cell lines were transfected with siRNAs (25 nM) using Lipofectamine RNAiMAX. After 48 hrs, cells were trypsinized and repeatedly transfected with siRNAs (25 nM) using Lipofectamine RNAiMAX. Cells were trypsinized after a further 48 hrs, counted, and reseeded at the specified density in 96-well plates. To measure cell viability after drug treatment, cells were trypsinized, counted, reseeded at the specified density in 96-well plates, and exposed to the indicated concentrations of drugs. Cell viability was measured using the CellTiter-Glo Luminescent Cell Viability Assay. Luminescence was measured using an Envision Multi-label plate reader (PerkinElmer).

[8] = ARID1A-deficient versus ARID1A-proficient ovarian and other cancer cells

COCC1(CO)C(=O)C2CCN1CC2 (stereo not drawn) [APR-246]
sensitivity of ARID1A-deficient versus ARID1A-proficient cancer cells [1]: more sensitive to APR-246 than ARID1A-proficient cancer cells | apoptosis (caspase activation, Annexin V) [2]: induced apoptosis | GSH level (GSH/GSSG) in SWI/SNF complexes-deficient cancer cells ([3]; 40 μM APR-246, 24 hrs): decreased in the GSH level | GSH levels (GSH/GSSG) in gastric cancer PDCs ([3]; 40 or 50 μM APR-246, 1.25 μM erastin, 24 hrs): markedly decreased GSH levels in ARID1A-deficient PDCs and not in ARID1A-proficient PDCs | GSH level (ratio of reduced GSH to GSSG) ([3]; ARID1A-KO HCT116 cells, but not ARID1A-WT cells, 24 hrs): dose-dependently decreased the GSH level | GSH levels in ovarian PDCs ([3]; ARID1A-deficient PDCs, 50 μM, 24 hrs): decreased the GSH levels | GSH level in cancer cell lines [3, 8]: decreased GSH level | ROS level in SWI/SNF complexes-deficient cancer cells ([4]; 40 μM APR-246, 24 hrs): increased in the ROS level | ROS levels in gastric cancer PDCs ([4]; 40 or 50 μM APR-246, 48 hrs): increased more markedly in ARID1A-deficient than in ARID1A-proficient PDCs | intracellular ROS level (H2O2) ([4]; ARID1A-KO versus ARID1A-WT HCT116 cells, 48 hrs): increased more in ARID1A-KO cells than in ARID1A-WT cells | levels of ROS and apoptosis in ovarian PDCs ([4]; ARID1A-deficient PDCs, 40-50 μM, 24-48 hrs): increased the levels of ROS and apoptosis | ROS level in cancer cell lines [4, 8]: increased ROS level | expression of p53 and p21 [5]: did not markedly affect expression of p53 or p21 | sensitivity of ARID1A-deficient versus ARID1A-positive PDCs [6]: more sensitive | IC50 values in ARID1A-deficient versus ARID1A-proficient bile duct cancer cell lines [7]: markedly lower in two ARID1A-deficient cell lines than in two ARID1A-proficient cell lines
